The source made the active and inactive calls.
Legend:
[1] = NIH-3T3 fibroblast cytotoxicity, dose response, cytotoxicity control, cell-based, fluorescence, Alamar Blue, secondary assay (AID 2327); format: functional;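 note: NIH-3T3 mouse fibroblasts cultured with fluconazole at 8 µg/mL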
[2] = C. albicans growth with fluconazole, confirmation, fluorescence, retest (AID 2467); format: functional, cell-based
Caspase-3 = target: T1, Caspase-3 (Homo sapiens, UniProt P42574); format: functional;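 note: Dose-response selectivity test against caspase-3 for candidate inhibitors of sentrin-specific proteases (SENPs)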
T1 sequence (P42574 whole entry): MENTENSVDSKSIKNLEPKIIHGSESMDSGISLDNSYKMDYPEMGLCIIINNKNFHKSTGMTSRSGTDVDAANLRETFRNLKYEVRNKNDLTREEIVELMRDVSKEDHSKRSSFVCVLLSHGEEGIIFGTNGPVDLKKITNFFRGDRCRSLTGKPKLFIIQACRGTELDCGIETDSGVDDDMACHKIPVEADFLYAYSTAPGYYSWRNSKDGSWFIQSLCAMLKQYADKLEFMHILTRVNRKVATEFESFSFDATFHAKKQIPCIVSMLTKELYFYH

[3] = target: T2, Sentrin-specific protease 7 (Homo sapiens, UniProt Q9BQF6); format: functional;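 note: Luminescence-based dose-response confirmation of ultra-high-throughput screening hits, measuring inhibition of SENP7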
T2 sequence (Q9BQF6 whole entry): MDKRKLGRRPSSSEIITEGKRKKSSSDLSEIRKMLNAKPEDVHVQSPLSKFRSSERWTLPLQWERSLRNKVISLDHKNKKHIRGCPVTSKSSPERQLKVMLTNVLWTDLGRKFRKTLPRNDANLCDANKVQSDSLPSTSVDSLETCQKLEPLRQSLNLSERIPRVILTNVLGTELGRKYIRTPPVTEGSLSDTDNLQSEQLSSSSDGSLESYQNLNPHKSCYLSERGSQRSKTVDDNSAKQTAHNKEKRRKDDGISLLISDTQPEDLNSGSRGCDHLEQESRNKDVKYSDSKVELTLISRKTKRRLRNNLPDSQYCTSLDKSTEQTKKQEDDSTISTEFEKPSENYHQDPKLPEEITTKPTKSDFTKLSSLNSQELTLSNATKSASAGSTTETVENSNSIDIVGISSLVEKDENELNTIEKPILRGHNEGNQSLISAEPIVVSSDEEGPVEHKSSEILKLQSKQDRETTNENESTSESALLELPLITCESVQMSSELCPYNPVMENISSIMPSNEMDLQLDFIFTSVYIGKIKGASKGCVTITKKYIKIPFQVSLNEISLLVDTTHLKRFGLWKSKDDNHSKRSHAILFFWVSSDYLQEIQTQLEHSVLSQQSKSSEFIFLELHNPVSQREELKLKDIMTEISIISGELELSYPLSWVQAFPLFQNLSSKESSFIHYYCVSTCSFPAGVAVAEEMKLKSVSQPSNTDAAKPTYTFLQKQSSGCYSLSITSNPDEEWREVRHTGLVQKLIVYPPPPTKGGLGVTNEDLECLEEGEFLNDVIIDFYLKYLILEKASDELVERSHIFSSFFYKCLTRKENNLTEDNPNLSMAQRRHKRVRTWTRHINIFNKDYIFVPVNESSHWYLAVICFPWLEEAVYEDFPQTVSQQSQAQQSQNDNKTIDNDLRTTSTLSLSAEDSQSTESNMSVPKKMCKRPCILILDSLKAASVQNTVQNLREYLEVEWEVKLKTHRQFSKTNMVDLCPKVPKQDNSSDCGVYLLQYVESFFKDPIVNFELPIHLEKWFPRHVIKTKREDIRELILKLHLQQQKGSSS

[4] = target: T3, Sentrin-specific protease 6 (Homo sapiens, UniProt Q9GZR1); format: functional;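 note: Luminescence-based dose-response confirmatory assay of SENP6 inhibition, following up an ultra-high-throughput screen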
T3 sequence (Q9GZR1 whole entry): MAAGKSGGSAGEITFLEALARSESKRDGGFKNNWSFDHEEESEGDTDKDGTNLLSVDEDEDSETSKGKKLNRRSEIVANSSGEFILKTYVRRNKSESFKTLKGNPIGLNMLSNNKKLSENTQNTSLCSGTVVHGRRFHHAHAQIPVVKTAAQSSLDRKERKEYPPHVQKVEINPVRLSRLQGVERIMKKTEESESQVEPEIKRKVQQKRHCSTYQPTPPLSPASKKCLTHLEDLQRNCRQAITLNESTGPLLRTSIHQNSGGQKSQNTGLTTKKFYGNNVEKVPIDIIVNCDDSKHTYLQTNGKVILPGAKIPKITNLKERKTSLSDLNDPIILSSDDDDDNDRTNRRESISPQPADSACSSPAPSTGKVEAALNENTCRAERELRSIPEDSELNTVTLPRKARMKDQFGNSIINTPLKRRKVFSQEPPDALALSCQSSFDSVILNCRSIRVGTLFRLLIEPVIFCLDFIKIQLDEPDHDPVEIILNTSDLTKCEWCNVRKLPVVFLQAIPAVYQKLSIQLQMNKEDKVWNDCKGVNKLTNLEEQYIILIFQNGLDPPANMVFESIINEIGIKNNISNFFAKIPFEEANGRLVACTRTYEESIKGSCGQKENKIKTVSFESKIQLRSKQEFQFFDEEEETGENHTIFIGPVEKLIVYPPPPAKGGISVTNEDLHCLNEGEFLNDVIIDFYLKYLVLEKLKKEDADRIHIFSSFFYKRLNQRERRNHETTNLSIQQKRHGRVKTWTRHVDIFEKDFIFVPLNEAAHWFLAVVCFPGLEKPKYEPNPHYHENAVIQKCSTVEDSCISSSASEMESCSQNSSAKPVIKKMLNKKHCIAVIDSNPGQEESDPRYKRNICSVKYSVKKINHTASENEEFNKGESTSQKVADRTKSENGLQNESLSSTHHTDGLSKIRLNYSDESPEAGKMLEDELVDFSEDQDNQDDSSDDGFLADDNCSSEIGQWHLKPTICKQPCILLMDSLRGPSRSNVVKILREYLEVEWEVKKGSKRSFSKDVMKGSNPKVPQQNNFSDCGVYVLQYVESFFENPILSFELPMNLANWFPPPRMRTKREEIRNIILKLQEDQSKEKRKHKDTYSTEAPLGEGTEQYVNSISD

[5] = target: T4, Sentrin-specific protease 8 (Homo sapiens, UniProt Q96LD8); format: functional;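 note: luminescence read-out of SENP8 inhibition, dose-response confirmation following an ultra-high-throughput screen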
T4 sequence (Q96LD8 whole entry): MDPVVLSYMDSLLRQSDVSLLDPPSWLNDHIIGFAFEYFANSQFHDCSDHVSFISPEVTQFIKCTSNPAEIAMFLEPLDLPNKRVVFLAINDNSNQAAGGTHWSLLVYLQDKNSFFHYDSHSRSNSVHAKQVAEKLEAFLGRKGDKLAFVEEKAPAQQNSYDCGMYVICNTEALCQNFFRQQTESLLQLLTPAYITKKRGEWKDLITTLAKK

[6] = target: T5, Corticotropin-releasing factor receptor 2/Corticotropin-releasing factor-binding protein (Homo sapiens, UniProt P24387+Q13324); test: Dose Response confirmation of uHTS hits for small molecule antagonists of the CRF-binding protein and CRF-R2 receptor complex.; format: functional; conditions: read-out: IC50_Mean
T5 sequence (Q13324 whole entry): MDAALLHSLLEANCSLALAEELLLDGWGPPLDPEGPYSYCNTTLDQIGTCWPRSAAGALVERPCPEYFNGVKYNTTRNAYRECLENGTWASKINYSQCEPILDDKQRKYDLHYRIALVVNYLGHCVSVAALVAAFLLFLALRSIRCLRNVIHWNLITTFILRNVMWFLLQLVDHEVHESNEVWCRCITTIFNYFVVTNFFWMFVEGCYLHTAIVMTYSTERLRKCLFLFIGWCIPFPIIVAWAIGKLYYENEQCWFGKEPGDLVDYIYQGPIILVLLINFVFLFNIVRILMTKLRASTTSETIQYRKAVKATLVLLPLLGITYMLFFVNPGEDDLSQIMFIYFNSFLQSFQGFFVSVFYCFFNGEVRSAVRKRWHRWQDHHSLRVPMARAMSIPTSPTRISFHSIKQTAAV
T5 sequence (P24387 whole entry): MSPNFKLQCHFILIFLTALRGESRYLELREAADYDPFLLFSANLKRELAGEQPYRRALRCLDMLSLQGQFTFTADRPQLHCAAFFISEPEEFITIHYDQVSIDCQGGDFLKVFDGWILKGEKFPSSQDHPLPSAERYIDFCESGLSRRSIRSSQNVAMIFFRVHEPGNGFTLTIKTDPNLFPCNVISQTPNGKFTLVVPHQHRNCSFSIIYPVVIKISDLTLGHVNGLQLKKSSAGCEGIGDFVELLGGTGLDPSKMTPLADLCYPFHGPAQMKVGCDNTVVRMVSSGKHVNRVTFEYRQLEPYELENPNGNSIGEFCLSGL

[7] = target: T5, Corticotropin-releasing factor receptor 2/Corticotropin-releasing factor-binding protein; test: activators of CRF receptor 2 with binding protein – uHTS hits, confirmation (AID 602473); format: functional; conditions: read-out: EC50_Mean
[8] = CRF-BP/CRF-R2 complex antagonists, dose response, cell-based, uHTS hits, 384-well (AID 651639); format: functional, Homo sapiens; conditions: read-out: IC50_Mean
[9] = target: T6, High affinity choline transporter 1 (Homo sapiens, UniProt Q9GZV3); test: CHT inhibitors, dose response, cell-based, 5-point CRC, membrane potential dye (AID 504840); format: functional
T6 sequence (Q9GZV3 whole entry): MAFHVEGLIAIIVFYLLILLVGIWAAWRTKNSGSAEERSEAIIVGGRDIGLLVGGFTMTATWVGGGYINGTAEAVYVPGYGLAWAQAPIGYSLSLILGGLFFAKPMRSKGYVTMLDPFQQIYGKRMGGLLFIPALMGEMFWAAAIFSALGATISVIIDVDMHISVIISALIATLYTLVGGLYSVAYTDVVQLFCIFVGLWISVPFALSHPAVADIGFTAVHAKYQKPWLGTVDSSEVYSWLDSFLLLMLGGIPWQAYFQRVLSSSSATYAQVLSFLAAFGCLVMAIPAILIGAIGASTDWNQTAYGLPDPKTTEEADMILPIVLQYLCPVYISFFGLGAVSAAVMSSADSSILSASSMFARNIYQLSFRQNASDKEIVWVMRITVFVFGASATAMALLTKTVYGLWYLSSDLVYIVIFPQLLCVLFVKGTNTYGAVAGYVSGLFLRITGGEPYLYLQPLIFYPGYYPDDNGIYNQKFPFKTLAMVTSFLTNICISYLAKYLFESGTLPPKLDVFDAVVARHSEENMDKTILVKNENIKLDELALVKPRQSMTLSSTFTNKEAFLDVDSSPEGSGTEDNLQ

[10] = target: T6, High affinity choline transporter 1; test: CHT inhibitors, dose response, cell-based, 10-point CRC, membrane potential dye (AID 588401); format: functional;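 note: membrane potential dye fluorescence of choline-evoked depolarization via CHT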
[11] = target: T7, Low molecular weight phosphotyrosine protein phosphatase (Homo sapiens, UniProt P24666); format: functional; conditions: read-out: IC50_Mean
T7 sequence (P24666 whole entry): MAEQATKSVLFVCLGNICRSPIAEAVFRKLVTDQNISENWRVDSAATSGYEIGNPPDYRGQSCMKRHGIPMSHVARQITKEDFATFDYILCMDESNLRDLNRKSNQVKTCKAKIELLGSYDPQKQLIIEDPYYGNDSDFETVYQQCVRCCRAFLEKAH

[12] = target: T7, Low molecular weight phosphotyrosine protein phosphatase; format: functional; conditions: read-out: IC50_Mean; remark: listed apart in the source
[13] = target: T8, RNA-binding protein pos-1 (Caenorhabditis elegans, UniProt G5EF15); test: inhibitors of POS-1/mex-3 RNA binding, dose response, biochemical, fluorescence polarization (AID 1964);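 note: purified POS-1 fused to maltose binding protein made in E. coli; potency of compounds blocking POS-1 binding to fluorescent RNA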
T8 sequence (G5EF15 whole entry): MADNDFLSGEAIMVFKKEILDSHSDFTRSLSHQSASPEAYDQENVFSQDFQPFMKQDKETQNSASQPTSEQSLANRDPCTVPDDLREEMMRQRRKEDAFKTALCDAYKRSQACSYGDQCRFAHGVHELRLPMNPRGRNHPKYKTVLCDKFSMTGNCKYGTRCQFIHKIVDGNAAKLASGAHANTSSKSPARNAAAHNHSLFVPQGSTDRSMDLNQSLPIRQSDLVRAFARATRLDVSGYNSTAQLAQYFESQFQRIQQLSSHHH

[14] = target: T9, Zinc finger protein mex-5 (Caenorhabditis elegans, UniProt Q9XUB2); test: MEX-5/TCR-2 RNA interaction inhibitors, dose response, biochemical, C. elegans, fluorescence polarization (AID 1960)
T9 sequence (Q9XUB2 whole entry): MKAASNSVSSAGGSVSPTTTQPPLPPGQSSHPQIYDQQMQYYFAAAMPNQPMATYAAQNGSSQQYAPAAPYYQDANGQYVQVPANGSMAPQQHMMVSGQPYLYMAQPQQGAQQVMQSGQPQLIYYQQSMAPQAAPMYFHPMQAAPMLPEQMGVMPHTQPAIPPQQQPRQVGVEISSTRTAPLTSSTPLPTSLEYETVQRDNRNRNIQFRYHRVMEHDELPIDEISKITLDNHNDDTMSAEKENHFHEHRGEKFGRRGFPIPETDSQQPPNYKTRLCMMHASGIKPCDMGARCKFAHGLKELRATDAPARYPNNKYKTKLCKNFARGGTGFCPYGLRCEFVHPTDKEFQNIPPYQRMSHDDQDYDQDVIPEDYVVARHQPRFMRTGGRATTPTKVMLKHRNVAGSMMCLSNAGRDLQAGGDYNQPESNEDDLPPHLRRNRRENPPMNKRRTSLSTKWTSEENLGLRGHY

SMILES | IC50 [6] | EC50 [7] | IC50 [8] | IC50 [9] | IC50 [10] | other results
Cc1ccc(SCC(=O)Nc2cc([N+](=O)[O-])ccc2O)cc1 | 2.34 µM (active) | 23.4 µM (active) | 13.5 µM (active) |  |  | EC50 [1]: > 150 µM (inconclusive); EC50 [2]: 0.046 µM (active); IC50 (Caspase-3): 17.9 µM (active); IC50 [3]: 29.3 µM (active); IC50 [4]: 25.6 µM (active); IC50 [5]: 31.3 µM (active)
O=C(C[n+]1cccc(Br)c1)c1ccc(-c2ccccc2)cc1 |  |  |  | 2.83 µM (active) | 1 µM (active) | 
CCC(C)c1ccc(NC(S)=NC(C)C2CCCO2)cc1 (configuration not stated) |  |  |  | 5.01 µM (active) | 4.09 µM (active) | 
COc1ccc(Nc2nc(-c3ccc4c(c3)NC(=O)CO4)cs2)cc1 |  |  |  |  |  | IC50 [11]: 13.1 µM (active); IC50 [12]: 54.9 µM (inactive)
O=C1CC(c2ccccc2)SC(N(c2ccccc2)c2ccccc2)=N1 (configuration not stated) | 7.25 µM (active) | > 53 µM (inactive) | > 20 µM (inactive) |  |  | 
Cc1n[nH]c(C)c1Sc1ccccc1/N=C/c1cc(Cl)cc([N+](=O)[O-])c1O |  |  |  | 8.88 µM (active) | 6.23 µM (active) | EC50 [13]: > 300 µM (inconclusive); EC50 [14]: 7.57 µM (inconclusive)
Cc1ccc(NC(=O)COC(=O)CCc2c[nH]c3ccccc23)c(C)c1 | 4.32 µM (active) | > 53 µM (inactive) | 8.75 µM (active) |  |  | 
Cc1nccc(O)c1Cc1c(Cl)cccc1Cl |  |  |  |  |  | IC50 [11]: 11.5 µM (active); IC50 [12]: 2.34 µM (active)

Source: ChEMBL document CHEMBL1201862, “PubChem BioAssay data set” (2004)
